Data published in patent US6852310B2, “Skin lightening agents, compositions and methods” (Unilever Home & Personal Care USA division of Conopco, Inc., priority 2002, dated 2005).

How the values were obtained:
[1] = tested on: B16 mouse melanoma cells; test: Melanin synthesis in B16 mouse melanoma cells (cell based assay); conditions: 6.25 micromolar, 72 hours, melanin in medium read at 530-nm, read-out: % of Control (Melanin Synthesis)
Experimental: This experiment was carried out using a cell based assay.
B16 mouse melanoma cells were utilized in the following experiment to evaluate the efficacy of skin lightening agents. B16 cells were plated in 96-well microtiter plates at a density of 5000 cells per well and cultured overnight in Dulbecco's Modified Eagle's Medium (phenol red free) containing 10% fetal bovine serum and 1% penicillin/streptomycin at 37° C. in the presence of 5% CO2. After 24 hours, the medium was replaced with fresh growth medium containing the treatments. All cultures were incubated for 72 hours at which time melanin was visible in the control treatment. The melanin-containing medium was transferred to a clean 96-well plate and quantified by reading the absorbency at 530-nm. Cell viability was assessed by measurement of lactate dehydrogenase levels to ensure the decrease in melanin was not a result of cellular toxicity.

[2] = tested on: mushroom tyrosinase; test: Mushroom Tyrosinase Assay; type: biochemical; conditions: for tyrosinase activity, % of ethanol control: slope of 475-nm absorbency vs. untreated ethanol control, L-DOPA substrate
Experimental: Mushroom tyrosinase inhibition is indicative of reduction in melanin synthesis, thereby showing skin lightening effect.
Into each well of a 96-well plate, 150 microliters of phosphate buffer (100 mM, pH 7.0), 10 microliters of L-DOPA (L-3, 4-Dihydroxyphenylalanine, 10 mM), and 20 microliters of skin lightening agent (dissolved in ethanol, which is the control) were added. Following an initial measurement of background absorbency at 475-nm, 20 microliters of mushroom tyrosinase (Sigma T-7755; 6050 units/ml) was added and incubated at room temperature.
Absorbency is read at 475-nm over the following time points: 0, 2, 4, and 6.5 minutes. The data is plotted as 475-nm absorbency vs. time (minutes) and the slope of the line is calculated (ΔAbs 475 nm/min). Values are expressed as the percentage of the respective untreated ethanol control reaction. [formula]

tyrosinase activity, % of ethanol control ([2]; 0.1 uM)	tyrosinase activity, % of ethanol control ([2]; 1 uM)	tyrosinase activity, % of ethanol control ([2]; 10 uM)	tyrosinase activity, % of ethanol control ([2]; 100 uM)	skin lightening effectiveness (in words, from tyrosinase data) ([2]; conclusion drawn from Table 8)	Structure (SMILES)	activity at 6.25 µM [1] [%]
72.7 % of Control	46.3 % of Control	30.8 % of Control	20.7 % of Control	–	CCc1ccc(O)cc1O [4-Ethyl Resorcinol]	15.6
104 % of Control	100 % of Control	108 % of Control	117 % of Control	effective in skin lightening	O=c1ccc2ccc(O)cc2o1 [7-Hydroxy Coumarin, 7-hydroxy coumarin]	–
75.1 % of Control	51.0 % of Control	53.0 % of Control	53.4 % of Control	–	CNC(=O)/C=C\c1ccc(O)cc1O [Resorcinol Amide 1]	13.1
84.2 % of Control	59.5 % of Control	58.0 % of Control	57.9 % of Control	–	COCCNC(=O)/C=C\c1ccc(O)cc1O [Resorcinol Amide 2]	13.7
